Tests used:
SNB-75 [1] = assay: Growth inhibition of human SNB-75 cells assessed as growth percentage at 0.01 uM incubated for 48 hrs by sulforhodamine B assay relative to control; format: functional; conditions: read-out: Activity
OVCAR-8 = assay: Growth inhibition of human OVCAR-8 cells assessed as growth percentage at 1 uM incubated for 48 hrs by sulforhodamine B assay relative to control; format: functional; conditions: read-out: Activity
SF-295 [2] = assay: Growth inhibition of human SF-295 cells assessed as growth percentage at 10 uM incubated for 48 hrs by sulforhodamine B assay relative to control; format: functional; conditions: read-out: Activity
U-251 [3] = assay: Growth inhibition of human U-251 cells incubated for 48 hrs by sulforhodamine B assay; format: functional; conditions: for CC50: read-out: LC50 (the source's name)
HOP-92 = assay: Growth inhibition of human HOP-92 cells assessed as growth percentage at 0.01 uM incubated for 48 hrs by sulforhodamine B assay relative to control; format: functional; conditions: read-out: Activity
KM12 = assay: Growth inhibition of human KM12 cells assessed as growth percentage at 1 uM incubated for 48 hrs by sulforhodamine B assay relative to control; format: functional; conditions: read-out: Activity
DU-145 = assay: Growth inhibition of human DU-145 cells assessed as growth percentage at 0.1 uM incubated for 48 hrs by sulforhodamine B assay relative to control; format: functional; conditions: read-out: Activity
Malme-3M = assay: Growth inhibition of human Malme-3M cells incubated for 48 hrs by sulforhodamine B assay; format: functional; conditions: for GI50: 48 h
ACHN [4] = assay: Growth inhibition of human ACHN cells assessed as growth percentage at 0.01 uM incubated for 48 hrs by sulforhodamine B assay relative to control; format: functional; conditions: read-out: Activity
SK-MEL-28 [5] = assay: Growth inhibition of human SK-MEL-28 cells assessed as growth percentage at 0.01 uM incubated for 48 hrs by sulforhodamine B assay relative to control; format: functional; conditions: read-out: Activity
SF-295 [6] = assay: Growth inhibition of human SF-295 cells assessed as growth percentage at 0.01 uM incubated for 48 hrs by sulforhodamine B assay relative to control; format: functional; conditions: read-out: Activity
HT-29 = assay: Growth inhibition of human HT-29 cells incubated for 48 hrs by sulforhodamine B assay; format: functional; conditions: for GI50: HT-29; for CC50: HT-29, read-out: LC50 (the source's name)
UO-31 [7] = assay: Growth inhibition of human UO-31 cells assessed as growth percentage at 0.01 uM incubated for 48 hrs by sulforhodamine B assay relative to control; format: functional; conditions: read-out: Activity
SNB-19 = assay: Growth inhibition of human SNB-19 cells assessed as growth percentage at 0.01 uM incubated for 48 hrs by sulforhodamine B assay relative to control; format: functional; conditions: read-out: Activity
SF-539 [8] = assay: Growth inhibition of human SF-539 cells assessed as growth percentage at 1 uM incubated for 48 hrs by sulforhodamine B assay relative to control; format: functional; conditions: read-out: Activity
ACHN [9] = assay: Growth inhibition of human ACHN cells assessed as growth percentage at 1 uM incubated for 48 hrs by sulforhodamine B assay relative to control; format: functional; conditions: read-out: Activity
NCI-H460 = assay: Growth inhibition of human NCI-H460 cells assessed as growth percentage at 1 uM incubated for 48 hrs by sulforhodamine B assay relative to control; format: functional; conditions: read-out: Activity
SF-268 [10] = assay: Growth inhibition of human SF-268 cells assessed as growth percentage at 10 uM incubated for 48 hrs by sulforhodamine B assay relative to control; format: functional; conditions: read-out: Activity
SF-539 [11] = assay: Growth inhibition of human SF-539 cells assessed as growth percentage at 10 uM incubated for 48 hrs by sulforhodamine B assay relative to control; format: functional; conditions: read-out: Activity
SK-MEL-2 [12] = assay: Growth inhibition of human SK-MEL-2 cells assessed as growth percentage at 0.01 uM incubated for 48 hrs by sulforhodamine B assay relative to control; format: functional; conditions: read-out: Activity
U-251 [13] = assay: Growth inhibition of human U-251 cells assessed as growth percentage at 0.1 uM incubated for 48 hrs by sulforhodamine B assay relative to control; format: functional; conditions: read-out: Activity
SK-MEL-2 [14] = assay: Growth inhibition of human SK-MEL-2 cells assessed as growth percentage at 0.1 uM incubated for 48 hrs by sulforhodamine B assay relative to control; format: functional; conditions: read-out: Activity
A549 = assay: Growth inhibition of human A549/ATCC cells assessed as growth percentage at 0.1 uM incubated for 48 hrs by sulforhodamine B assay relative to control; format: functional; conditions: read-out: Activity
MDA-MB-231 = assay: Growth inhibition of human MDA-MB-231/ATCC cells assessed as growth percentage at 10 uM incubated for 48 hrs by sulforhodamine B assay relative to control; format: functional; conditions: read-out: Activity
Hs-578T = assay: Growth inhibition of human Hs-578T cells assessed as growth percentage at 100 uM incubated for 48 hrs by sulforhodamine B assay relative to control; format: functional; conditions: read-out: Activity
SNB-75 [15] = assay: Growth inhibition of human SNB-75 cells assessed as growth percentage at 100 uM incubated for 48 hrs by sulforhodamine B assay relative to control; format: functional; conditions: read-out: Activity
HCC 2998 = assay: Growth inhibition of human HCC 2998 cells assessed as growth percentage at 100 uM incubated for 48 hrs by sulforhodamine B assay relative to control; format: functional; conditions: read-out: Activity
HCT-15 = assay: Growth inhibition of human HCT-15 cells assessed as growth percentage at 10 uM incubated for 48 hrs by sulforhodamine B assay relative to control; format: functional; conditions: read-out: Activity
SF-268 [16] = assay: Growth inhibition of human SF-268 cells assessed as growth percentage at 100 uM incubated for 48 hrs by sulforhodamine B assay relative to control; format: functional; conditions: read-out: Activity
TK-10 = assay: Growth inhibition of human TK-10 cells assessed as growth percentage at 100 uM incubated for 48 hrs by sulforhodamine B assay relative to control; format: functional; conditions: read-out: Activity
BT-549 = assay: Growth inhibition of human BT-549 cells assessed as growth percentage at 100 uM incubated for 48 hrs by sulforhodamine B assay relative to control; format: functional; conditions: read-out: Activity
SK-MEL-2 [17] = assay: Growth inhibition of human SK-MEL-2 cells assessed as growth percentage at 1 uM incubated for 48 hrs by sulforhodamine B assay relative to control; format: functional; conditions: read-out: Activity
SK-MEL-28 [18] = assay: Growth inhibition of human SK-MEL-28 cells assessed as growth percentage at 100 uM incubated for 48 hrs by sulforhodamine B assay relative to control; format: functional; conditions: read-out: Activity
786-0 = assay: Growth inhibition of human 786-0 cells assessed as growth percentage at 1 uM incubated for 48 hrs by sulforhodamine B assay relative to control; format: functional; conditions: read-out: Activity
UO-31 [19] = assay: Growth inhibition of human UO-31 cells assessed as growth percentage at 1 uM incubated for 48 hrs by sulforhodamine B assay relative to control; format: functional; conditions: read-out: Activity
OVCAR-5 = assay: Growth inhibition of human OVCAR-5 cells assessed as growth percentage at 10 uM incubated for 48 hrs by sulforhodamine B assay relative to control; format: functional; conditions: read-out: Activity
K562 = assay: Growth inhibition of human K562 cells assessed as growth percentage at 1 uM incubated for 48 hrs by sulforhodamine B assay relative to control; format: functional; conditions: read-out: Activity
SK-MEL-5 = assay: Growth inhibition of human SK-MEL-5 cells assessed as growth percentage at 100 uM incubated for 48 hrs by sulforhodamine B assay relative to control; format: functional; conditions: read-out: Activity
[20] = Terminal half life in Sprague-Dawley rat at 10 mg/kg, po measured up to 24 hrs by LC-MS/MS analysis; format: ADME, organism-based; conditions: in vivo, read-out: beta t1/2

Compound Nc1nc2[nH]c(CN3CCN(c4cc(Cl)cc(Cl)c4)CC3)c(CN3CCN(c4cc(Cl)cc(Cl)c4)CC3)c2c(=O)[nH]1 has a growth at 0.01 µM (SNB-75 [1]) of 81%, a growth at 1 µM (OVCAR-8) of 96% and a growth at 10 µM (SF-295 [2]) of 98.4%. It also gave a GI50 (U-251 [3]; Homo sapiens, U-251, 48 h) of 1670 nM, a TGI (U-251 [3]; Homo sapiens, U-251, 48 h) of 3140 nM and a CC50 (U-251 [3]; Homo sapiens, U-251, 48 h) of 5900 nM. For the same compound, the growth at 0.01 µM (HOP-92) was 85%, the growth at 1 µM (KM12) was 99% and the growth at 0.1 µM (DU-145) was 109%. For the same compound, the TGI (Malme-3M; Homo sapiens, Malme-3M) was 3930 nM, the GI50 (Malme-3M; Homo sapiens, Malme-3M) was 2000 nM and the growth at 0.01 µM (ACHN [4]) was 94%. The growth at 0.01 µM (SK-MEL-28 [5]) was 94%, the growth at 0.01 µM (SF-295 [6]) was 87% and the GI50 (HT-29) was 1740 nM. It also gave a TGI (HT-29; HT-29, 48 h) of 3410 nM, a CC50 (HT-29) of 6700 nM and a growth at 0.01 µM (UO-31 [7]) of 96%. The growth at 0.01 µM (SNB-19) was 96%, the growth at 1 µM (SF-539 [8]) was 93% and the growth at 1 µM (ACHN [9]) was 98%. The growth at 1 µM (NCI-H460) was 98%, the growth at 10 µM (SF-268 [10]) was 81.2% and the growth at 10 µM (SF-539 [11]) was 84.5%. For the same compound, the growth at 0.01 µM (SK-MEL-2 [12]) was 109%, the growth at 0.1 µM (U-251 [13]) was 97% and the growth at 0.1 µM (SK-MEL-2 [14]) was 115%. The growth at 0.1 µM (A549) was 94%, the growth at 10 µM (MDA-MB-231) was 71.9% and the growth at 100 µM (Hs-578T) was -25%. The growth at 100 µM (SNB-75 [15]) was -76%, the growth at 100 µM (HCC 2998) was -38% and the growth at 10 µM (HCT-15) was 67.4%. The growth at 100 µM (SF-268 [16]) was -59%, the growth at 100 µM (TK-10) was -69% and the growth at 100 µM (BT-549) was -37%. The growth at 1 µM (SK-MEL-2 [17]) was 114%, the growth at 100 µM (SK-MEL-28 [18]) was -42% and the growth at 1 µM (786-0) was 82%. It also gave a growth at 1 µM (UO-31 [19]) of 90%, a growth at 10 µM (OVCAR-5) of 92.2% and a growth at 1 µM (K562) of 83%. For the same compound, the growth at 100 µM (SK-MEL-5) was -61%.
With CCCCCCCC(=O)Nc1nc2[nH]c(CN3CCN(Cc4cccc(F)c4)CC3)c(CN3CCN(Cc4cccc(F)c4)CC3)c2c(=O)[nH]1 the growth at 0.01 µM (SNB-75 [1]) was 93%, the growth at 1 µM (OVCAR-8) was -66% and the growth at 10 µM (SF-295 [2]) was -69.2%. It also gave a GI50 (U-251 [3]; 48 h) of 170 nM, a TGI (U-251 [3]; 48 h) of 330 nM and a CC50 (U-251 [3]; 48 h) of 610 nM. The GI50 (U-251 [3]; Homo sapiens, U-251, 48 h) was 172 nM, the TGI (U-251 [3]; Homo sapiens, U-251, 48 h) was 325 nM and the CC50 (U-251 [3]; Homo sapiens, U-251, 48 h) was 614 nM. The growth at 0.01 µM (HOP-92) was 90%, the growth at 1 µM (KM12) was 43% and the growth at 0.1 µM (DU-145) was 101%. For the same compound, the GI50 (Malme-3M) was 670 nM, the TGI (Malme-3M; Homo sapiens, Malme-3M) was 2240 nM and the GI50 (Malme-3M; Homo sapiens, Malme-3M) was 672 nM. The CC50 (Malme-3M; Homo sapiens, Malme-3M, read-out: LC50 (the source's name)) was 6110 nM, the half-life [20] was 1.66 h and the growth at 0.01 µM (SF-295 [6]) was 97%. The GI50 (HT-29) was 260 nM, the CC50 (HT-29) was 3760 nM and the growth at 0.01 µM (UO-31 [7]) was 77%. For the same compound, the growth at 0.01 µM (SNB-19) was 96%, the growth at 1 µM (NCI-H460) was 11% and the growth at 10 µM (SF-268 [10]) was -92.2%. It also gave a growth at 10 µM (SF-539 [11]) of -96.9%, a growth at 0.1 µM (U-251 [13]) of 92% and a growth at 0.1 µM (A549) of 98%. For the same compound, the growth at 10 µM (MDA-MB-231) was -83%, the growth at 100 µM (Hs-578T) was -40% and the growth at 100 µM (SNB-75 [15]) was -99%. For the same compound, the growth at 100 µM (HCC 2998) was -79%, the growth at 10 µM (HCT-15) was -70.8% and the growth at 100 µM (SF-268 [16]) was -77%. The growth at 100 µM (TK-10) was -91%, the growth at 100 µM (BT-549) was -91% and the growth at 1 µM (786-0) was 83%. The growth at 1 µM (UO-31 [19]) was 25%, the growth at 1 µM (K562) was -31% and the growth at 100 µM (SK-MEL-5) was -81%.
